Reference: publication PMC5132081 (The Febs Journal, 2016)
Read-outs that look alike come from different tables or passages of the source.

Experiments:
CYP109E1 [1] = target: T1, CYP109E1 (Priestia megaterium, UniProt D5DKI8); assay: co-crystal structure; assay type: binding
T1 sequence (D5DKI8 1-404): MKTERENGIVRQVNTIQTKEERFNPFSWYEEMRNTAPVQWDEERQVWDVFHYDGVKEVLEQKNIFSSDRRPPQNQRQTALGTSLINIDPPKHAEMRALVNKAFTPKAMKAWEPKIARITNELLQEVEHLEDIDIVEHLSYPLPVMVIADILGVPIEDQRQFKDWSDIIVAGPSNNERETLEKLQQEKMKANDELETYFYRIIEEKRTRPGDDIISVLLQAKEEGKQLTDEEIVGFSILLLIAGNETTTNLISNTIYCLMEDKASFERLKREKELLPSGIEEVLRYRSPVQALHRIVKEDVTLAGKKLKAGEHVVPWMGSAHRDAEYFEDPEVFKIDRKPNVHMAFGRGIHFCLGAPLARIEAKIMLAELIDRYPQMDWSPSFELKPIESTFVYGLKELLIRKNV

CYP109E1 [2] = target: T1, CYP109E1; assay: co-crystal structure; assay type: binding; remark: listed apart in the source
CYP109E1 [3] = target: CYP109E1 (Priestia megaterium, UniProt D5DKI8, K187A); assay: in vitro turnover of purified mutant with Adx4-108/AdR, HPLC; assay type: biochemical
CYP109E1 [4] = target: CYP109E1 (Priestia megaterium, UniProt D5DKI8, E245A); assay: as above; assay type: biochemical

Structure (SMILES): C[C@]12C[C@H](O)[C@H]3[C@@H](CCC4=CC(=O)CC[C@@]43C)[C@@H]1CC[C@@H]2C(=O)CO [compound 4, corticosterone]
- Kd (CYP109E1 [1]): 91 ± 8 µM

Structure (SMILES): C[C@]12CC[C@H]3[C@@H](CCC4=CC(=O)CC[C@@]43C)[C@@H]1CC[C@@H]2O [compound 11, testosterone]
- Kd (CYP109E1 [2]): 105 ± 10 µM
- Catalytic activity for the formation of 16β-OH-TES, nmol.(nmol P450)^-1.min^-1 (CYP109E1 [3]): 1.43 ± 0.06 nmol·(nmol P450)^−1·min^−1
- Catalytic activity for the formation of 16β-OH-TES, nmol.(nmol P450)^-1.min^-1 (CYP109E1 [4]): 4.69 ± 0.04 nmol·(nmol P450)^−1·min^−1
